According to ChEMBL document CHEMBL3507680, “University of Dundee, Gates Library screen for HepG2 cell viability”:

Test: Human HepG2 cell viability assay in 384 well format
Format: toxicity, cell-based
Design: dose 125 nL, time 70.5 hour; cytotoxicity at 70.5 h: concentration not given beside the values
Conditions: HepG2 cells, read-out: Inhibition

| Structure (SMILES) | cytotoxicity at 70.5 h |
| --- | --- |
| Cc1cc(CNC(=O)C2CCC(=O)N(Cc3ccccc3F)C2)on1 (stereo not given) | -2.07% |
| CCc1cc(CNC(=O)C2CCC(=O)N(Cc3ccccc3F)C2)on1 (stereo not given) | -9.72% |
| CC(C)(O)c1cn(C2CCN(C(=O)CCC3CCCC3)CC2)nn1 | 27% |
| COc1cccc(C2CCN2C(=O)c2cc(C(C)C)on2)c1 (stereo not given) | -0.704% |
| Cc1nsc(NC(=O)N2CCCCC2CCO)n1 (stereo not given) | -6.53% |
| CN1[C@@H](c2ccccc2)[C@@H](C(=O)NCC2CCOCC2)C[C@@]1(C)C(=O)O | -11.8% |
| Cc1ccc(C2(O)CCN(C(=O)c3ccc(S(N)(=O)=O)cc3)CC2)nc1 | -12.2% |
| CC(c1ccon1)N(C)S(=O)(=O)NCc1ccccc1 (stereo not given) | -2.95% |
| Cc1cnccc1NCCNC1CCN(CC(C)C)CC1 | 2.02% |
| Cn1cc2ncn([C@H]3CCN(Cc4ccccc4)C3)c(=O)c2n1 | -6.58% |
| CCCn1nccc1C(=O)N1CCN(C2CCc3ccccc3C2)CC1 (stereo not given) | -7.89% |
| CCC(CO)N(C/C(C)=C/c1ccco1)Cc1ccsc1 (stereo not given) | 3.15% |
| Cc1cc(C(=O)N2CCCCC2c2nc3cc(F)ccc3[nH]2)no1 (stereo not given) | 27.9% |
| NC1CCCCN(Cc2ccccc2CS(=O)(=O)c2ccccc2)C1 (stereo not given) | -8.29% |
| CCc1nc(C)c([C@H]2CN(C)C[C@@H]2C(=O)Nc2ccc(OC)nc2)[nH]1 | -1.87% |
| CN1CCC2(CC1)CN(C(=O)c1cccc3cccnc13)CCN2C | -8.6% |
| O=C(O)c1ccc(N2CCC(Oc3cccc(F)c3)CC2)nc1 | 14.5% |
| CCN(CC)C(=O)c1ccc(Cl)c(NC(=O)c2cnc(C)cn2)c1 | -7.02% |
| CCCn1cc(-c2cc(-c3c[nH]cn3)c(C#N)c(N)n2)c(C)n1 | 3.58% |
| CCC(C(=O)NCC1=CCCN(C)C1)c1ccccc1 (stereo not given) | -13.4% |
| N#Cc1ccnc(N2CCC(NCCN3CCCC3)CC2)c1 | -6.96% |
| Cc1ccc(-c2n[nH]cc2CN(Cc2nccn2C)C(C)C)cc1C | -5.49% |

| Structure (SMILES) | cytotoxicity at 70.5 h |
| --- | --- |
| CSCC(=O)N1CCc2nc(C)nc(NCc3ccccc3)c2CC1 | -5.43% |
| CS(=O)(=O)N1CCN(C(=O)c2ccco2)[C@H]2CS(=O)(=O)C[C@H]21 | 15.1% |
| CN(Cc1csc(-c2cccs2)n1)C(=O)CN1CCOC1=O | -3.58% |
| Cc1nn(C)cc1C(=O)N1CCCN(C2Cc3ccccc3C2)CC1 | 14.3% |
| CS(=O)(=O)c1ccc(CN2C[C@H]3CC[C@@H]2CN(c2ncccn2)C3)cc1 | -5.94% |
| COC(=O)c1cccc(CN(C)C(C)c2ccccn2)c1 (stereo not given) | -24.9% |
| COc1ccccc1C(=O)N1CCN(C(=O)CCCc2cn[nH]c2)CC1 | -6.9% |
| CCn1nc(C)cc1C(=O)N1CCCN(CCCc2ccccc2)CC1 | 1.03% |
| Cc1cc(C(=O)N(C)Cc2nc(-c3ccccn3)no2)c(C)o1 | -4.74% |
| CNc1ncc(C(=O)N2CCC(CCc3ccccc3)CC2)cn1 | 13.7% |
| CCCN1CCN(Cc2cccc(OCC(N)=O)c2)[C@H]2CS(=O)(=O)C[C@H]21 | 0.755% |
| CCOc1ncccc1CN1Cc2ncccc2C1=O | -6.82% |
| CCn1cncc1Cn1ncc2ccccc2c1=O | -7.38% |
| CCN1CCCC2(CCN(Cc3nnc(C4CC4)o3)C2)C1=O (stereo not given) | 0.731% |
| CC(C)Cn1c(=O)n(CCCn2cccn2)c2cc(C(=O)O)cnc21 | -10.8% |
| CC[C@@]1(O)CCN(C(=O)c2ccc(CN3CCCCCC3)cc2)C[C@H]1O | -3.75% |
| CN(Cc1cccc(-n2cccn2)c1)C(=O)c1cccc(N(C)C)c1 | -10.6% |
| CCCc1nnc(NC2CCN(C3CCOCC3)CC2)o1 | -9.47% |
| CN(Cc1cc[nH]n1)C(C(=O)O)c1ccc(Cl)cc1 (stereo not given) | -4.85% |
| COc1ncccc1C1CC(=O)NCc2nc3sccn3c21 (stereo not given) | -12.8% |
| COc1ccccc1N1CCN(C(=O)CCn2nnnc2C)CC1(C)C | 19.3% |
| O=C1O[C@@H]2CN(C3CCOCC3)C[C@@H]2N1CCCc1ccc(F)cc1 | 14.2% |

| Structure (SMILES) | cytotoxicity at 70.5 h |
| --- | --- |
| Cc1cc(CN(C)C(C(=O)O)c2ccc(C(C)(C)C)cc2)on1 (stereo not given) | -5.92% |
| Nc1cc(-c2cccc3c2CCNC3)ncn1 | -6.17% |
| Cc1ccc(CCNc2nc(-c3ccncc3)nc3c2CCNCC3)o1 | 2.56% |
| CC(C)Cc1cc(C(=O)N2CC(OCc3ccccc3F)C2)n(C)n1 | -2.8% |
| COc1cccc(C(=O)N2CCc3c(nc(N)[nH]c3=O)C2)c1OC | -2.24% |
| CS(=O)(=O)CCN1CC(c2ccccc2)(c2ccccc2)CCC1=O | 22.9% |
| Cc1ncsc1-c1nc(CC2CCN(C)CC2)nn1Cc1ccccc1 | 8.01% |
| COc1ccc([C@@H]2CN(C(=O)CS(C)(=O)=O)C[C@H]2NC(C)=O)cc1 | -2.94% |
| CNC(=O)[C@@H]1C[C@@H](N)CN1c1nnc(-c2ccccc2)s1 | -4.95% |
| CCn1ncnc1C(C)NC(=O)COc1ccc(Cl)cc1Cl (stereo not given) | -10.4% |
| Cc1nn(C)c(C)c1C(C(=O)O)N1CCc2ccccc2C1 (stereo not given) | 0.959% |
| CC(=O)NCc1cccc(-n2ccnc2-c2cccc(C(=O)O)c2)c1 | 16.6% |
| CSc1nc(C)cc(N2CCC(c3ncc[nH]3)CC2)n1 | -2.3% |
| CN(CCCOc1ccccc1Cl)C(=O)CN1C[C@@H]2CC[C@H](CC1=O)N2 | -2.68% |
| CN(C)CC(c1ccccc1)N(C)C(=O)c1cccc(NCC(=O)O)c1 (stereo not given) | -0.106% |
| CSc1ccccc1NC(=O)N1C[C@@H](N(C)C)[C@H](c2ccc(C)cc2)C1 | -13.9% |
| COc1cccc(OC)c1C(C(=O)O)N(C)Cc1c(C)n[nH]c1C (stereo not given) | -14.8% |
| O=C1CCCc2occ(C(=O)N3CCCC4(CCNC4)C3)c21 (stereo not given) | -7.04% |
| c1cnnc(-c2noc(CCN3CCCO3)n2)c1 | -10.9% |
| Cc1ccccc1CCC1CCCN(Cc2nnc(-c3ccco3)o2)C1 (stereo not given) | -12.7% |
| Cc1nn(CC(=O)O)c(C)c1NS(=O)(=O)c1cccc2ccccc12 | -6.18% |
| COCCCN(Cc1cnc(-c2ccccn2)nc1)C1CCN(C)CC1 | -22.2% |

| Structure (SMILES) | cytotoxicity at 70.5 h |
| --- | --- |
| CCOC(=O)N1CCC(NC(C)c2ccccc2-n2cccn2)CC1 (stereo not given) | 35.4% |
| OC1(CNCCCN2CCc3ccccc32)CCNC1 (stereo not given) | 22.2% |
| Cc1ccccc1-n1cc(-c2ccnc(N[C@H](CO)C(C)C)n2)cn1 | -14.1% |
| CCOc1ccc2[nH]c(=O)c(CN3CCCC3c3ccccn3)cc2c1 (stereo not given) | -11.8% |
| Cc1ccc(C(=O)N2CCC(n3cc(CO)nn3)CC2)cn1 | 11% |
| CSCc1noc(CNS(=O)(=O)c2cccc(C(=O)NC3CC3)c2)n1 | -10.1% |
| Cc1nonc1CN1CC[C@@](O)(C2CCC2)[C@H](C)C1 | -3.97% |
| CN(C)C(=O)CN1C[C@@H]2CC[C@H](C1)N(Cc1ccccc1OCCO)C2 | -9.08% |
| CC(C)OC(=O)c1ccc(Cl)c(NC(=O)NCCN2CCOCC2)c1 | -7.91% |
| Cc1ncsc1CCC(=O)NCc1csc(N2CCCC2)n1 | -6.59% |
| COc1ccccc1-n1c(CC(C)C)nnc1SCC(=O)O | -2.95% |
| CCCc1nc(CNC(=O)Cc2cc(C)no2)cs1 | 19.8% |
| COc1ccc2c(c1)OCC(Cc1ccc(CN)cn1)C2 (stereo not given) | -7.48% |
| CCc1ncc(CN2CCCN(CC3CC3)C(C(C)C)C2)cn1 (stereo not given) | 9.86% |
| Cc1ccccc1-c1noc(C2CC(C(C)C)=NO2)n1 (stereo not given) | -0.419% |
| Cc1cc(N(C)CCCn2cccn2)nc(-c2cccnc2)n1 | 11.2% |
| CN(C)c1ncc(-c2c(-c3ccccc3)ncn2C(CO)C(=O)O)cn1 (stereo not given) | -10.8% |
| COc1cccc(-c2n[nH]cc2-c2nc(CC3CCN(C)CC3)no2)c1 | -6.75% |
| COc1cccc2c1OCC(C(=O)NCCc1nnc(C)s1)C2 (stereo not given) | 8.68% |
| CC(Cn1cncn1)NC(=O)c1cn(Cc2ccccc2F)nn1 (stereo not given) | 0.213% |
| O=C(C1CCS(=O)(=O)CC1)N1CCC(Cc2ccc(F)cc2)CC1 | 3.44% |
| Cc1ccc(F)c(OC2(C(=O)O)CCN(C(=O)c3ccncc3)CC2)c1 | -4.46% |

| Structure (SMILES) | cytotoxicity at 70.5 h |
| --- | --- |
| COc1cccc(OCC2CCCN(C(=O)c3cc(C)n[nH]3)C2)c1 (stereo not given) | 4.2% |
| CCn1cc(S(=O)(=O)NC2CCCN(CCCc3ccccc3)C2)cn1 (stereo not given) | -1% |
| CCc1cn[nH]c1C1CCN(C(=O)c2cc(C#N)c(=O)[nH]c2C)CC1 | -3.13% |
| CN1CC2(CCCN(Cc3nnc(-c4cccc(F)c4)o3)C2)OC1=O (stereo not given) | -5.83% |
| Cc1cc(N2C[C@H](NC(=O)C3(C#N)CCOCC3)[C@@H](C(C)C)C2)ccn1 | -10.5% |
| Cc1cc(C)n(-c2ccc(C(=O)NCc3cncn3CC(C)C)cc2)n1 | -1.13% |
| O=C1CC2(CCN(C(=O)Cc3cc4c(cc3Cl)OCCO4)C2)C(=O)N1 (stereo not given) | -5.25% |
| Cc1cccc(N2CCC(N3CCCC4(CN(C)C(=O)O4)C3)CC2)c1C (stereo not given) | -9.98% |
| C[C@@H]1CN(C(=O)c2cc(COc3ccc4c(c3)OCO4)[nH]n2)C[C@H](C)O1 | -3.48% |
| CCC(C(=O)NCc1noc(Cc2cccs2)n1)n1cccn1 (stereo not given) | 26% |
| Cc1cc2ccccc2n1CCC(=O)N1CCCC(O)(CN(C)C)CC1 (stereo not given) | -0.891% |
| Cc1ccccc1CN(CCO)Cc1ncc[nH]1 | -12.3% |
| CCn1c(CC2CCN(C(=O)c3cc(C(C)C)n[nH]3)CC2)n[nH]c1=O | -6.21% |
| Nc1nc(Sc2cccs2)cc(N2CC[C@H](CO)[C@H](O)C2)n1 | 22.1% |
| COc1ccnc(N2C[C@@H]3CC[C@H](C2)N(CC2CC2)C3)n1 | 4.47% |
| CNC(=O)C1CCN(C(=O)c2coc(COc3ccc(OC)cc3)n2)C1 (stereo not given) | -2.27% |
| Cc1ccc(F)c(OC2(C(=O)O)CCN(C(=O)C3CCCC3)CC2)c1 | -4.91% |
| Cc1c(CN2CCCC(c3[nH]ncc3S(C)(=O)=O)C2)cnn1C (stereo not given) | -5.66% |
| Fc1cccnc1CN1CCCCC1c1ccn2ccnc2n1 (stereo not given) | 6.23% |
| Nc1cc(CCC2CN(Cc3ccc(C(=O)O)cc3)CCO2)ccn1 (stereo not given) | 23.8% |
| CNc1ccc(CC2CCCN(C(=O)c3cncnc3C)C2)nn1 (stereo not given) | -0.989% |
| CCn1cc(C(=O)N2CCCC(c3[nH]ncc3S(C)(=O)=O)C2)cn1 (stereo not given) | -8.2% |
